Measured values: the supplement of paper PMC10307832

Assays:
Experiment in all cases: relative viability (nuclei count vs DMSO), 5 days (fraction); higher = more cells survive
PC-3 [JPC-3] = test system: PC-3 [JPC-3]
In short: (§1)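 Relative viability equals treated-well nuclei counts divided by vehicle-well nuclei counts. Counts came from 4× images of lung cancer cell lines grown in 1536-well plates for 5 days after pin-tool dosing on the day after seeding. Dosing used one drug alone or a fixed anchor-drug dose plus five library-drug doses (not always all listed) in √10 steps, and values are medians of duplicate plates.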

A-427 = test system: A-427
In short: as §1

NCI-H1915 = test system: NCI-H1915
In short: as §1

NCI-H2347 = test system: NCI-H2347
In short: as §1

SK-LU-1 = test system: SK-LU-1
In short: as §1

NCI-H1975 = test system: NCI-H1975
In short: as §1

NCI-H358 = test system: NCI-H358
In short: as §1

HCC-78 = test system: HCC-78
In short: as §1

NCI-H1734 = test system: NCI-H1734
In short: as §1

LXF-289 = test system: LXF-289
In short: as §1

SMILES: Cc1sc2c(c1C)C(c1ccc(Cl)cc1)=N[C@@H](CC(=O)OC(C)(C)C)c1nnc(C)n1-2 [JQ1] + Cc1nc(NC(=O)N2CCC[C@H]2C(N)=O)sc1-c1ccnc(C(C)(C)C(F)(F)F)c1 [Alpelisib] (partner 2 µM)
- relative viability (PC-3 [JPC-3]; first compound 0.04 µM): 1.06
- relative viability (PC-3 [JPC-3]; first compound 0.1265 µM): 1.03
- relative viability (PC-3 [JPC-3]; first compound 0.4 µM): 1.09
- relative viability (PC-3 [JPC-3]; first compound 1.265 µM): 0.775
- relative viability (PC-3 [JPC-3]; first compound 4 µM): 0.608
- relative viability (A-427; first compound 0.04 µM): 1.15
- relative viability (A-427; first compound 0.1265 µM): 1.05
- relative viability (A-427; first compound 0.4 µM): 1.11
- relative viability (A-427; first compound 1.265 µM): 0.967
- relative viability (A-427; first compound 4 µM): 0.731
- relative viability (NCI-H1915; first compound 0.04 µM): 1.05
- relative viability (NCI-H1915; first compound 0.1265 µM): 0.94
- relative viability (NCI-H1915; first compound 0.4 µM): 0.982
- relative viability (NCI-H1915; first compound 1.265 µM): 0.613
- relative viability (NCI-H1915; first compound 4 µM): 0.33
- relative viability (NCI-H2347; first compound 0.04 µM): 0.982
- relative viability (NCI-H2347; first compound 0.1265 µM): 0.8
- relative viability (NCI-H2347; first compound 0.4 µM): 0.848
- relative viability (NCI-H2347; first compound 1.265 µM): 0.646
- relative viability (NCI-H2347; first compound 4 µM): 0.477
- relative viability (SK-LU-1; first compound 0.04 µM): 1.11
- relative viability (SK-LU-1; first compound 0.1265 µM): 0.586
- relative viability (SK-LU-1; first compound 0.4 µM): 0.287
- relative viability (SK-LU-1; first compound 1.265 µM): 0.167
- relative viability (SK-LU-1; first compound 4 µM): 0.158
- relative viability (NCI-H1975; first compound 0.04 µM): 0.662
- relative viability (NCI-H1975; first compound 0.1265 µM): 0.424
- relative viability (NCI-H1975; first compound 0.4 µM): 0.578
- relative viability (NCI-H1975; first compound 1.265 µM): 0.348
- relative viability (NCI-H1975; first compound 4 µM): 0.335
- relative viability (NCI-H358; first compound 0.04 µM): 0.761
- relative viability (NCI-H358; first compound 0.1265 µM): 1.05
- relative viability (NCI-H358; first compound 0.4 µM): 0.93
- relative viability (NCI-H358; first compound 1.265 µM): 0.515
- relative viability (NCI-H358; first compound 4 µM): 0.527
- relative viability (HCC-78; first compound 0.04 µM): 0.336
- relative viability (HCC-78; first compound 0.1265 µM): 0.34
- relative viability (HCC-78; first compound 0.4 µM): 0.281
- relative viability (HCC-78; first compound 1.265 µM): 0.234
- relative viability (HCC-78; first compound 4 µM): 0.252
- relative viability (NCI-H1734; first compound 0.04 µM): 0.709
- relative viability (NCI-H1734; first compound 0.1265 µM): 0.645
- relative viability (NCI-H1734; first compound 0.4 µM): 0.637
- relative viability (NCI-H1734; first compound 1.265 µM): 0.544
- relative viability (NCI-H1734; first compound 4 µM): 0.421
- relative viability (LXF-289; first compound 0.04 µM): 1.02
- relative viability (LXF-289; first compound 0.1265 µM): 0.983
- relative viability (LXF-289; first compound 0.4 µM): 0.97
- relative viability (LXF-289; first compound 1.265 µM): 0.718
